Source: patent US12280036B2, “Using fatty acid synthase inhibitors to treat fibrosis” (Mayo Foundation for Medical Education and Research, priority 2016, dated 2025)

How the values were obtained:
FASN [1] = test: Western blot of TGFβ induced FASN expression in AKR-2B fibroblasts; type: cell-based, murine; details: TGFβ 10 ng/ml, Rapamycin 100 nM, Torin 200 nM, 24 hours
Experimental: (§1) Murine fibroblasts (AKR-2B) and human lung fibroblasts (MRCS) were transfected with either a nontargeting control siRNA (60 nmol/L) or with Smad2/3-targeting siRNA (60 nmol/L). After 72 hours of cultivation, the transient transfectants were stimulated in the absence or presence of 10 ng/ml TGFβ for 24 hours. Proteins were obtained from treated and control cells. Protein samples were Western blotted for FASN, pSmad2, pSmad3, and connective tissue growth factor (CTGF), and Western blotted for GAPDH as a loading control.
(§2) Murine fibroblasts (AKR-2B) and human lung fibroblasts (MRCS) were stimulated in the absence or presence of TGFβ (10 ng/ml) plus a PI3K inhibitor (LY294002; 10 μM), a MEK inhibitor (U0126; 10 μM), an AKT inhibitor (MK2206; 0.3 μM), a mTORC1 inhibitor (Rapamycin; 100 nM), or a mTORC1,2 inhibitor (Torin; 200 nM). Expression of pErk and pS6K/pS6K was determined at 1 and 6 hours post-stimulation while FASN, pSmad3, and GAPDH assessed at 24 hours. TGFβ induced FASN expression was abrogated in the presence of rapamycin or torin (FIGS. 3C and 3D).

FASN [2] = test: Western blot of TGFβ induced FASN expression in MRCS lung fibroblasts; type: cell-based, human; details: TGFβ 10 ng/ml, Rapamycin 100 nM, Torin 200 nM, 24 hours
Experimental: as §1, §2

[3] = Blood inflammatory cells in bleomycin or saline challenged mice; type: in vivo, C57BL/6 mice; details: 3.0 mg/kg C75 every 4th day from day 14; blood at days 0, 14, and 28
Experimental: (§3) C57BL/6 mice were intratracheally treated with an equal volume of saline (control) or bleomycin (BLM; 0.075 U). On day 14 all animals began treatment every 4th day with either vehicle (Methocel/saline) or 3.0 mg/kg of C75. Blood samples were obtained at days 0, 14, and 28 from the facial vein of unanesthetized animals and assessed for effect on inflammatory cells. Quantification of lymphocytes, monocytes, and neutrophils were measured using a VetScan HM5 Analyzer (FIG. 7B). Data are presented as mean+/−SEM of n=5.

[4] = test system: profibrotic TGFβ signaling; test: Western blot of TGFβ induced profibrotic proteins in AKR-2B fibroblasts; type: cell-based, murine; details: C75 3 μM, TGFβ 10 ng/ml, 24 hours
Experimental: (§4) Murine fibroblasts (AKR-2B) and human lung fibroblasts (MRCS) were treated for 24 hours with vehicle (0.025% DMSO) or C75 (FASN inhibitor, 3 μM) in the presence or absence of TGFβ (10 ng/ml). Proteins were obtained from treated and control cells. Protein samples were Western blotted for FASN, Col I, Col IV, FN, CTGF, and pSmad3, and Western blotted for GAPDH as a loading control. TGFβ increased expression of FASN, Col I, Col IV, FN, CTGF, and pSmad3, but inhibition of FASN activity with C75 suppressed TGFβ induced Col I, Col IV, and FN expression (FIG. 4A).
as §1, with “FASN-targeting” for “Smad2/3-targeting”, “Col I, Col IV, FN, CTGF, and” for “pSmad2,”, “pSmad3,” for “pSmad3, and connective tissue growth factor (CTGF),”, “control. TGFβ increased expression of FASN, Col I, Col IV, FN, CTGF, and pSmad3, but inhibition of FASN activity with FASN-targeting siRNA suppressed TGFβ induced Col I, Col IV, and FN expression (FIG. 5A).” for “control.”

AKR-2B cells [5] = test: In vitro cell proliferation (MTT assay and cell counts), AKR-2B; type: cell-based, murine; details: C75 3 μM, 0.1% FBS or 10% FBS
Experimental: (§5) Murine fibroblasts (AKR-2B) and human lung fibroblasts (MRCS) were seeded at 2.5×10^3 or 1×10^4 cells/96 well plate, respectively. AKR-2B cells were seeded in medium containing 10% DMEM/FBS, and MRCS cells were seeded in medium containing 10% EMEM/FBS. 24 hours after seeding, the medium was removed and replaced with DMEM or EMEM containing vehicle (0.1% DMSO), or C75 (3 μM) either in 10%, 0.1%, or 0% FBS for 24 hours prior to MTT assay (FIG. 6A). Absorbance was measured at 570 nm. Results represent mean±SEM from three independent experiments
as §5, with “1.0×10^4 cells/well in 24” for “2.5×10^3 or 1×10^4 cells/96”, “plates for 24 hours.” for “plate, respectively.”, “determining cell counts following an additional 24 hour and 48 hour incubation” for “MTT assay”, “6B).” for “6A). Absorbance was measured at 570 nm.”, “experiments.” for “experiments”

[6] = Oxygen saturation (SpO2) in bleomycin challenged mice; type: in vivo; details: 0.03, 0.3, or 3 mg/kg C75 every 4th day from day 14, room air, dose dependent
Experimental: Mice were challenged with bleomycin or saline for 25 days, and every 4th day, beginning 14 days following initial bleomycin insult, were treated with vehicle (methocel/0.1% DMSO) or with 0.03 mg/kg, 0.3 mg/kg, or 3 mg/kg C75. Oxygen saturation (SpO2) levels (determined on room air) were measured.
Bleomycin-induced fibrotic conditions caused reduced, time-dependent fluctuations in oxygen saturation, but inhibition of FASN activity with C75 stabilized lung gas exchange in a dose dependent manner (FIG. 7; *p-value<0.05, **p-value<0.01). Error bars reflect standard deviation from n=5 (control, BLM, 0.03 mg/kg C75), 7 (0.3 mg/kg C75), or 8 (3 mg/kg C75) animals.

[7] = Adenovirus-TGFβ model of pulmonary fibrosis; type: in vivo; details: adenovirus-TGFβ1 mice; 3.0 mg/kg C75 every 4th day from day 21; blood oxygen days 21 and 35, hydroxyproline and qPCR day 39
Experimental: Mice were infected with 1×10^8 pfu adenovirus particles expressing control (GFP) or active TGFβ1 by tracheal instillation. On day 21 all animals began treatment every 4th day with either vehicle (Methocel/saline) or 3.0 mg/kg of C75. Peripheral blood oxygen determined on days 21 and 35 (FIG. 10A). Data reflect mean+/−SEM of n=8 and n=15 for adenovirus-GFP and adenovirus-TGFβ, respectively. *P<0.05. Mice were infected with 1×10^8 pfu adenovirus particles expressing control (GFP) or active TGFβ1 by tracheal instillation. On day 21 all animals began treatment every 4th day with either vehicle (Methocel/saline) or 3.0 mg/kg of C75. Mice were sacrificed on day 39 and processed for lung hydroxyproline content (FIG. 10B). Data reflect mean+/−SEM of n=8 and n=15 for adenovirus-GFP and adenovirus-TGFβ, respectively. **P<0.01. Mice were infected with 1×10^8 pfu adenovirus particles expressing control (GFP) or active TGFβ1 by tracheal instillation. On day 21 all animals began treatment every 4th day with either vehicle (Methocel/saline) or 3.0 mg/kg of C75. Mice were sacrificed on day 39 and processed for qPCR expression of connective tissue growth factor (CTGF), alpha smooth muscle actin (α-SMA), and collagen Iα1 (Col Iα1). Data reflect mean+/−SEM of n=8 and n=15 for adenovirus-GFP and adenovirus-TGFβ, respectively. *P<0.05, **P<0.01.

FN, CTGF, and Col I = test: qPCR of profibrotic genes in lung tissue of bleomycin challenged mice; type: in vivo; details: 0.03, 0.3, or 3 mg/kg C75 intraperitoneal every 4th day from day 14, lung harvested day 28, dose dependent
Experimental: Mice were challenged with bleomycin or vehicle (methocel/0.1% DMSO), and every 4th day, beginning 14 days following initial bleomycin insult, were treated by intraperitoneal injection with vehicle, 0.03 mg/kg, 0.3 mg/kg, or 3 mg/kg C75. Murine lung tissue was harvested on day 28 and RNA was obtained. qPCR was performed using primers specific for FN, CTGF, and Col I.
Data reflect mean standard deviation from lungs of n=5 (control, bleomycin, 0.03 mg/kg C75), 7 (0.3 mg/kg C75), or 8 (3 mg/kg C75) animals.

AKR-2B cells [8] = test: Scratch assay (cell migration), AKR-2B; type: cell-based, murine; details: C75 3 μM, TGFβ 10 ng/ml, 24 hours
Experimental: (§6) Murine fibroblasts (AKR-2B) and human lung fibroblasts (MRCS) were treated for 24 hours with vehicle (0.025% DMSO), TGFβ (10 ng/ml), or both TGFβ (10 ng/ml) and C75 (3 μM). Following 24 hours of treatment, culture plates were manually scratched. TGFβ increased cell migration, but inhibition of FASN activity with C75 suppressed TGFβ induced cell migration (FIG. 4C). Data are representative of 3 separate experiments.
Murine (AKR-2B) lung fibroblasts were transfected with either a nontargeting control siRNA (60 nmol/L) or with FASN-targeting siRNA (60 nmol/L). After 72 hours of cultivation, the transient transfectants were stimulated in the absence or presence of 10 ng/ml TGFβ for 24 hours. Following 24 hours of treatment, culture plates were manually scratched. TGFβ increased cell migration, but inhibition of FASN activity with FASN-targeting siRNA suppressed TGFβ induced cell migration (FIG. 5C). Data are representative of 3 separate experiments.

[9] = test system: profibrotic TGFβ signaling; test: Western blot of TGFβ induced profibrotic proteins in MRCS lung fibroblasts; type: cell-based, human; details: C75 3 μM, TGFβ 10 ng/ml, 24 hours
Experimental: as §4
as §1, with “FASN-targeting” for “Smad2/3-targeting”, “Col I, Col IV, FN, CTGF, and” for “pSmad2,”, “pSmad3,” for “pSmad3, and connective tissue growth factor (CTGF),”, “control. TGFβ increased expression of FASN, Col I, Col IV, FN, CTGF, and pSmad3, but inhibition of FASN activity with FASN-targeting siRNA suppressed TGFβ induced Col I, Col IV, and FN expression (FIG. 5A).” for “control.”

MRCS cells [10] = test: In vitro cell proliferation (MTT assay and cell counts), MRCS; type: cell-based, human; details: C75 3 μM, FBS free or 10% FBS
Experimental: as §5
as §5, with “1.0×10^4 cells/well in 24” for “2.5×10^3 or 1×10^4 cells/96”, “plates for 24 hours.” for “plate, respectively.”, “determining cell counts following an additional 24 hour and 48 hour incubation” for “MTT assay”, “6B).” for “6A). Absorbance was measured at 570 nm.”, “experiments.” for “experiments”

[11] = Serum liver enzymes in bleomycin or saline challenged mice; type: in vivo, C57BL/6 mice; details: 3.0 mg/kg C75 every 4th day from day 14; blood at days 0, 14, and 28
Experimental: as §3, with “liver enzymes. Serum levels (U/L, units per liter; g/dL, grams per deciliter)” for “inflammatory cells. Quantification”, “alkaline phosphatase (ALP), alanine aminotransferase (ALT),” for “lymphocytes, monocytes,”, “albumin” for “neutrophils”, “determined” for “measured”, “Piccolo Xpress Chemistry” for “VetScan HM5”, “7A).” for “7B).”

AKR-2B cells [12] = test: Soft agar colony formation assay; type: cell-based, murine; details: 0, 0.3, 1, 3, or 10 μM C75, TGFβ 10 ng/ml, 7 days growth, dose dependent
Experimental: Murine fibroblasts (AKR-2B) were treated for 24 hours with vehicle (0.025% DMSO) or C75 (FASN inhibitor, 3 μM) in the presence or absence of TGFβ (10 ng/ml), and 0, 0.3, 1, 3, or 10 μM C75. Following 7 days growth, cells were subjected to soft agar colony formation assays. TGFβ increased colony formation, but inhibition of FASN activity with C75 suppressed TGFβ induced colony formation in a dose dependent manner (FIG. 4B; *p-value<0.05, **p-value<0.01). Data reflect the mean+/−standard deviation of triplicate wells from 3 experiments.
Murine fibroblasts (AKR-2B) were transfected with either a nontargeting control siRNA (60 nmol/L) or with FASN-targeting siRNA (60 nmol/L). After 72 hours of cultivation, the transient transfectants were stimulated in the absence or presence of 10 ng/ml TGFβ for 24 hours. Following 7 days growth, cells were subjected to soft agar colony formation assays. TGFβ increased colony formation, but inhibition of FASN activity with FASN-targeting siRNA suppressed TGFβ induced colony formation (FIG. 5B; **p-value<0.01). Data reflect the mean standard deviation of triplicate wells from 3 experiments.

MRCS cells [13] = test: Scratch assay (cell migration), MRCS; type: cell-based, human; details: C75 3 μM, TGFβ 10 ng/ml, 24 hours
Experimental: as §6

Row | Compound | TGFβ induced FASN expression (FASN [1]) | TGFβ induced FASN expression (FASN [2]) | inflammatory cell recruitment (lymphocytes, monocytes, neutrophils) [3] | TGFβ induced Col I, Col IV, and FN expression [4] | in vitro cell proliferation (OD570, cell counts) (AKR-2B cells [5]) | lung gas exchange (oxygen saturation, SpO2) [6] | lung function [7] | FN, CTGF, and Col I expression (qPCR, lung tissue) (FN, CTGF, and Col I) | TGFβ induced cell migration (AKR-2B cells [8]) | TGFβ induced Col I, Col IV, and FN expression [9] | in vitro cell proliferation (OD570, cell counts) (MRCS cells [10]) | murine liver enzymes (serum ALP, ALT, albumin) [11] | TGFβ induced colony formation (AKR-2B cells [12]) | TGFβ induced cell migration (MRCS cells [13])
1 | Torin | abrogated | abrogated | – | – | – | – | – | – | – | – | – | – | – | –
2 | C=C1C(=O)OC(CCCCCCCC)C1C(=O)O (centres unmarked) [C75] | – | – | no effect | suppressed | does not inhibit | stabilized | stabilizes lung function | reduced | suppressed | suppressed | does not inhibit | no effect | suppressed | suppressed
